Six compounds from US20260193264A1, “BENZOYPARAZINE PYRAZINES AND THEIR USES” (FOGHORN THERAPEUTICS INC., priority 2022, published 2026) can be followed below.

Test [1] deals with T1, HiBiT-BRM fusion protein in stable HeLa cell line (Homo sapiens, UniProt P51531).
T1 construct: expressed in transfected cells
As to the kind of experiment: HiBiT-BRM cell-based degradation assay (Nano-Glo HiBiT Lytic Detection, 24 h). The note with it: HeLa HiBiT-BRM cells; for DC50: read-out: BRM HiBit Degradation IC50; for BRM HiBit Degradation Maximum (%): top dose 30 μM. The arrangement: DC50: scale not given here. The method in brief:
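Stable HiBiT-BRM HeLa cells treated 24 h with 10-point 3-fold dilutions, top final dose 30 μM, in duplicate. Luminescence read after lytic LgBiT reagent. Percent degradation was normalised to DMSO (high control) and 2 μM reference BRM/BRG1 degrader (low control).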

Test [2] concerns the target T2, HiBit-BRG1 fusion protein in stable HeLa cell line expressing HiBit-BRG1 and LgBit (Homo sapiens, UniProt P51532).
T2 construct: expressed in transfected cells
Nature of the test: HiBiT-BRG1 cell-based degradation assay (Nano-Glo HiBiT, 24 h). Particulars: HeLa HiBit-BRG1/LgBit cells; for DC50: read-out: BRMG1 HiBit Degradation IC50; for Dmax: top dose 30 μM, read-out: BRG1 HiBit Degradation Maximum (%). The method, boiled down: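 Stable HeLa line co-expressing HiBiT-BRG1 and LgBiT, compound-treated 24 h; luminescence read after Nano-Glo HiBiT lytic reagent. % degradation normalised between DMSO (high control) and 2 μM reference BRM/BRG1 degrader (low control).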

T1 sequence (P51531 whole entry, the tested form may be a part): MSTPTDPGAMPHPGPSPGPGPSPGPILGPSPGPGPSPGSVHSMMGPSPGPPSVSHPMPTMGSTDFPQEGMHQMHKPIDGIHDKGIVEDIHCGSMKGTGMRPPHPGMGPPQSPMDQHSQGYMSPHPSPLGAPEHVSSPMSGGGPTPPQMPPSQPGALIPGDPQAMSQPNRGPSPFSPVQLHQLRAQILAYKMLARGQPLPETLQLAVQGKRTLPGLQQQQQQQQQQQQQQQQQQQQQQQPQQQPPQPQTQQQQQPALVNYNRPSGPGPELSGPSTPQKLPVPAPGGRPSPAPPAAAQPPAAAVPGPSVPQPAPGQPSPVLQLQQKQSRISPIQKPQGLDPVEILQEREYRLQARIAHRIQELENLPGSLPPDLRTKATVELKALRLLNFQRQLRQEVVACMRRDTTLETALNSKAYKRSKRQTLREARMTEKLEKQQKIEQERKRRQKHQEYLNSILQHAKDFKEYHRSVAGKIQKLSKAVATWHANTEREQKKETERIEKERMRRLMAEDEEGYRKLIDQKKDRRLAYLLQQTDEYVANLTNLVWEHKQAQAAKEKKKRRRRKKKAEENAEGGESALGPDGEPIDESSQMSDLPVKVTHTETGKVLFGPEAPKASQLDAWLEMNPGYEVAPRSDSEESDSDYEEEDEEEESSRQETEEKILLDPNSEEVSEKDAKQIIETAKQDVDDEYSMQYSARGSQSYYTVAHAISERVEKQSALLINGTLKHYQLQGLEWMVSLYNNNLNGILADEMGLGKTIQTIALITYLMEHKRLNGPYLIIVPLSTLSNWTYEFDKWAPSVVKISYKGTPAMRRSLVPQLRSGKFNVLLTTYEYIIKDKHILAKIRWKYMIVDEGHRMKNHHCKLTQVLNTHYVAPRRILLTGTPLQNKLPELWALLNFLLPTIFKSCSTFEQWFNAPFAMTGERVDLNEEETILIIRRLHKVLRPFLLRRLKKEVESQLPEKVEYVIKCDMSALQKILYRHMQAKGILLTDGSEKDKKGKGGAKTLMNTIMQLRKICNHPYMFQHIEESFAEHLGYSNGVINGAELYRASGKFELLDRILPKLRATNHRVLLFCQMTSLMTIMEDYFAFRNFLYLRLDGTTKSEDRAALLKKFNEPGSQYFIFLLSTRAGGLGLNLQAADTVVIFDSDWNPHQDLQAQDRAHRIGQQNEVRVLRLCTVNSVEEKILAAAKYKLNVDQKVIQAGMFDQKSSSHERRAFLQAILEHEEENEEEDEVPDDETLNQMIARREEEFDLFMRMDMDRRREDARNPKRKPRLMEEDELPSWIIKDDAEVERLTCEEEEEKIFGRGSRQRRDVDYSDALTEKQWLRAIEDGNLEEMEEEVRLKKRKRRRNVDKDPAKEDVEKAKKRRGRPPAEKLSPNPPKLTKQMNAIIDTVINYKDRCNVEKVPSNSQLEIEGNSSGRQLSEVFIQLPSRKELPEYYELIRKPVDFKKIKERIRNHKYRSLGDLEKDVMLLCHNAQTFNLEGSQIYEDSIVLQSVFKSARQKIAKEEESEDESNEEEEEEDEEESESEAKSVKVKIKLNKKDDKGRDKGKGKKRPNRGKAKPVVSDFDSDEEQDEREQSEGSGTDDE
T2 sequence (P51532 whole entry, the tested form may be a part): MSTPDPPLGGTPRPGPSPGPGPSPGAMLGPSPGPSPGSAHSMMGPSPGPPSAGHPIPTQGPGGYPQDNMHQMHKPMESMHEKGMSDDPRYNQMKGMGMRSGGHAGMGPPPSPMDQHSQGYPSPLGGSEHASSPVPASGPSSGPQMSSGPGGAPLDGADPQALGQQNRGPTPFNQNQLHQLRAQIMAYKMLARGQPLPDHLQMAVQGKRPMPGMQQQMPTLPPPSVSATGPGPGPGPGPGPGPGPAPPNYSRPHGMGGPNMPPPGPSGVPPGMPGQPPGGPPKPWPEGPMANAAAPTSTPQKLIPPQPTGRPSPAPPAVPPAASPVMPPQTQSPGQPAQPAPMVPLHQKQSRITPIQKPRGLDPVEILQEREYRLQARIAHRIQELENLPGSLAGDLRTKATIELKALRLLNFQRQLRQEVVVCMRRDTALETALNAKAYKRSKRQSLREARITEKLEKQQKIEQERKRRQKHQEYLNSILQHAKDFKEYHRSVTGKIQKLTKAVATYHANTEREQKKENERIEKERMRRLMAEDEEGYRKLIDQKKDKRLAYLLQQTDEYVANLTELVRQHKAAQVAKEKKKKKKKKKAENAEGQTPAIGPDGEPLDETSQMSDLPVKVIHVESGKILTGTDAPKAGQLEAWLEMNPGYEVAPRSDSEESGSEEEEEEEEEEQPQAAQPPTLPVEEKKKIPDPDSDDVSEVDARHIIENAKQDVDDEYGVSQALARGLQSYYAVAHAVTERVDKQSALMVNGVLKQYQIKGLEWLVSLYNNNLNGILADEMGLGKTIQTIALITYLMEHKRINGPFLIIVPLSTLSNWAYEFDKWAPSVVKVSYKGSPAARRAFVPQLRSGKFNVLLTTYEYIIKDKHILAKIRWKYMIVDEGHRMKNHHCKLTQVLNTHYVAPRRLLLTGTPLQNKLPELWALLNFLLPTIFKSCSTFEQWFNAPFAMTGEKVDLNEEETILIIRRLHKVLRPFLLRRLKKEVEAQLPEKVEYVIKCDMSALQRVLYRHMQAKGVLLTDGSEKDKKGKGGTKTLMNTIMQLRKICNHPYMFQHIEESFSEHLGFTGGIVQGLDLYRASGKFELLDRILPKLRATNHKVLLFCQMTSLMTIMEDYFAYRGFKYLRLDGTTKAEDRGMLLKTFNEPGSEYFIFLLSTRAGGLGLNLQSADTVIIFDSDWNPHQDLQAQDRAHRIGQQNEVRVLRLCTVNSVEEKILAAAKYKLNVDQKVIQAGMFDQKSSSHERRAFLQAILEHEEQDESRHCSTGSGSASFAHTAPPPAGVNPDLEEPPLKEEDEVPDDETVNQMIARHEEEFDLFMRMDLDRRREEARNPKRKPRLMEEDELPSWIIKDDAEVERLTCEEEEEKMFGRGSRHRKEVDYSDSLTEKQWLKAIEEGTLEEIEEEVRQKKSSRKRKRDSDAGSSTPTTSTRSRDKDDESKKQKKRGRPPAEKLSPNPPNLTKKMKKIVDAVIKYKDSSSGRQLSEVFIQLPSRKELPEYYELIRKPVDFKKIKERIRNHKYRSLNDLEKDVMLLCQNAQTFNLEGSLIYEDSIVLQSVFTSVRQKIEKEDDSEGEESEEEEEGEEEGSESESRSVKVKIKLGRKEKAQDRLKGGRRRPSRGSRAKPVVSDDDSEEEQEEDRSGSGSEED

With `Cc1ncsc1-c1ccc([C@H](C)NC(=O)[C@@H]2C[C@@H](O)CN2C(=O)C(C(C)C)n2cc(N3CCC(CN4CCN(c5ccc6cc(-c7ccccc7O)nnc6c5)CC4)CC3)nn2)cc1` (stereo partly drawn) [Compound 259, (2S,4R)-4-hydroxy-1-(2-(4-(4-((4-(3-(2-hydroxyphenyl)cinnolin-7-yl)piperazin-1-yl)methyl)piperidin-1-yl)-1H-1,2,3-triazol-1-yl)-3-methylbutanoyl)-N-((S)-1-(4-(4-methylthiazol-5-yl)phenyl)ethyl)pyrrolidine-2-carboxamide], in test [1], the DC50 is less than 10 nM and the “BRM HiBit Degradation Maximum (%)” value is “A (“A” indicates maximum degradation ≥75%)”. In test [2], the DC50 is more than 10 nM and the Dmax was more than 75%.

For the compound `Cc1ncsc1-c1ccc([C@H](C)NC(=O)[C@@H]2C[C@@H](O)CN2C(=O)[C@@H](c2cc(N3CCC4(CC3)CC(N(C)c3ccc5cc(-c6ccccc6O)nnc5c3)C4)no2)C(C)C)cc1` [Compound 122, (2S,4R)-4-hydroxy-1-((R)-2-(3-(2-((3-(2-hydroxyphenyl)cinnolin-7-yl)(methyl)amino)-7-azaspiro[3.5]nonan-7-yl)isoxazol-5-yl)-3-methylbutanoyl)-N-((S)-1-(4-(4-methylthiazol-5-yl)phenyl)ethyl)pyrrolidine-2-carboxamide], in test [1], the DC50 is less than 10 nM and the “BRM HiBit Degradation Maximum (%)” value was “A (“A” indicates maximum degradation ≥75%)”. Besides, in test [2], the DC50 was less than 10 nM and the Dmax is more than 75%.

Take `CCOc1cc2cc(-c3ccccc3O)nnc2cc1N1CC2(CN(c3cc([C@H](C(=O)N4C[C@H](O)C[C@H]4C(=O)N[C@@H](C)c4ccc(-c5scnc5C)cc4)C(C)C)on3)C2)C1` [Compound 237, (2S,4R)-1-((R)-2-(3-(6-(6-ethoxy-3-(2-hydroxyphenyl)cinnolin-7-yl)-2,6-diazaspiro[3.3]heptan-2-yl)isoxazol-5-yl)-3-methylbutanoyl)-4-hydroxy-N-((S)-1-(4-(4-methylthiazol-5-yl)phenyl)ethyl)pyrrolidine-2-carboxamide]: in test [1], the DC50 is less than 10 nM and the “BRM HiBit Degradation Maximum (%)” value is “A (“A” indicates maximum degradation ≥75%)”. For the same compound, in test [2], the DC50 was less than 10 nM and the Dmax is more than 75%.

Consider `Cc1ncsc1-c1ccc(C(C)NC(=O)C2CC(O)CN2C(=O)[C@@H](c2cc(N3CCN([C@@H]4CCN(Cc5cc6nnc(-c7ccccc7O)cc6cc5Cl)CC4(F)F)CC3)no2)C(C)C)cc1` (stereo in doubt) [Compound 215, (2R,4S)-1-((R)-2-(3-(4-((R)-1-((6-chloro-3-(2-hydroxyphenyl)cinnolin-7-yl)methyl)-3,3-difluoropiperidin-4-yl)piperazin-1-yl)isoxazol-5-yl)-3-methylbutanoyl)-4-hydroxy-N-((R)-1-(4-(4-methylthiazol-5-yl)phenyl)ethyl)pyrrolidine-2-carboxamide], for which, in test [1], the DC50 is less than 10 nM and the “BRM HiBit Degradation Maximum (%)” value is on record as “A (“A” indicates maximum degradation ≥75%)”. Further, the Dmax in test [2] is less than 50%.

In the case of `Cc1ncsc1-c1ccc([C@H](C)NC(=O)[C@@H]2C[C@@H](O)CN2C(=O)C(C(C)C)n2cc(N3CCC4(CC3)CCN4c3ccc4nnc(-c5ccccc5O)cc4c3)nn2)cc1` (some centres unmarked) [Compound 278], in test [1], the DC50 is less than 10 nM and the “BRM HiBit Degradation Maximum (%)” value is on record as “A (“A” indicates maximum degradation ≥75%)”. Also, in test [2], the DC50 was more than 10 nM and the Dmax is more than 50%.

Turning to `Cc1ncsc1-c1ccc([C@H](C)NC(=O)[C@@H]2C[C@@H](O)CN2C(=O)[C@@H](c2cc(-c3cnc(N4CC[C@H](c5ccc6cc(-c7ccccc7O)nnc6c5)C4)nc3)no2)C(C)C)cc1` [Compound 22], in test [1], the DC50 is less than 10 nM and the “BRM HiBit Degradation Maximum (%)” value was “A (“A” indicates maximum degradation ≥75%)”. Also, in test [2], the DC50 was less than 10 nM and the Dmax was more than 75%.
